US11883395B2 (priority 2020, dated 2024)

System: human coronavirus (hCOV)-OC43
Format: cell-based

O=C1O[C@H]2[C@@H]3OC(=O)c4cc(O)c(O)c(O)c4-c4c(O)c(O)c5oc(=O)c6c(c(O)c(O)c7oc(=O)c4c5c76)-c4c(cc(O)c(O)c4O)C(=O)OC[C@H]3OC(O)[C@@H]2OC(=O)c2cc(O)c(O)c(O)c2-c2c1cc(O)c(O)c2O (mixture of isomers) [punicalagin]
significantly decreased: hCoV-OC43 envelope protein mRNA level | hCoV-OC43 membrane protein mRNA level | hCoV-OC43 spike protein mRNA level

O=C(C1CC1)N1CCN(Cn2sc3ccccc3c2=O)CC1 [LOC13, 2-[[4-(cyclopropylcarbonyl)-1-piperazinyl]methyl]-1,2-benzisothiazol-3(2H)-one]
significantly decreased: hCoV-OC43 envelope protein mRNA level | hCoV-OC43 membrane protein mRNA level | hCoV-OC43 spike protein mRNA level
